Experimental data taken from patent US10975077B2 (Novira Therapeutics, Inc., priority 2016, dated 2021).

Each compound was assayed on HBV (encapsidated HBV DNA, HepG2.2.15 cells) (assay: HBV replication inhibition assay, BDNA assay in HepG2.2.15 cells). Settings: Hepatitis B virus, HepG2.2.15, Activity in BDNA-assay.
Format: cell-based
Method in brief: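 HepG2.2.15 cells (stably integrated HBV, 40,000/well) treated with serially diluted compound in 0.5% DMSO for 6 days, medium and compound refreshed at day 3. DNase-treated supernatant lysed with proteinase K; encapsidated HBV DNA quantified by bDNA, percent inhibition versus DMSO controls, EC50 by nonlinear fit.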

| Compound | EC50 [nM] |
| --- | --- |
| C[C@@H]1Cc2nn3c(c2CN1C(=O)Nc1ccc(F)c(C#N)c1)C(=O)N(C)CC(C)(C)C3 [Compound 139, (R)-N-(3-cyano-4-fluorophenyl)-3,8,8,10-tetramethyl-11-oxo-1,3,4,7,8,9,10,11-octahydro-2H-pyrido[4′,3′:3,4]pyrazolo[1,5-a][1,4]diazepine-2-carboxamide] | 1 to 100 |
| C[C@@H]1Cc2nn3c(c2CN1C(=O)Nc1ccc(F)c(C#N)c1)C(=O)N(C)CC1(CC(F)C1)C3 (stereo partly drawn) [Compound 142, (R)-N-(3-Cyano-4-fluorophenyl)-3-fluoro-3′,10′-dimethyl-11′-oxo-1′,3′,4′,9′,10′,11′-hexahydro-2′H,7′H-spiro[cyclobutane-1,8′-pyrido[4′,3′:3,4]pyrazolo[1,5-a][1,4]diazepine]-2′-carboxamide] | 1 to 100 |
| C[C@@H]1Cc2nn3c(c2CN1C(=O)Nc1ccc(F)c(C(F)(F)F)c1)C(=O)N(C)C[C@H](COCC(F)F)C3 [Compound 135_D2, (3R,8S)-8-((2,2-difluoroethoxy)methyl)-N-(4-fluoro-3-(trifluoromethyl)phenyl)-3,10-dimethyl-11-oxo-1,3,4,7,8,9,10,11-octahydro-2H-pyrido[4′,3′:3,4]pyrazolo[1,5-a][1,4]diazepine-2-carboxamide] | 1 to 100 |
| CN1CCCn2nc3c(c2C1)CN(C(=O)Nc1ccc(F)c(Cl)c1)CC3 [Compound 046, N-(3-chloro-4-fluorophenyl)-10-methyl-1,3,4,7,8,9,10,11-octahydro-2H-pyrido[4′,3′:3,4]pyrazolo[1,5-a][1,4]diazepine-2-carboxamide] | > 1000 |
| C[C@@H]1Cc2nn3c(c2CN1C(=O)Nc1ccc(F)c(C(F)(F)F)c1)C(=O)N(C)C[C@@H](COCC(F)F)C3 [Compound 135_D1, (3R,8R)-8-((2,2-difluoroethoxy)methyl)-N-(4-fluoro-3-(trifluoromethyl)phenyl)-3,10-dimethyl-11-oxo-1,3,4,7,8,9,10,11-octahydro-2H-pyrido[4′,3′:3,4]pyrazolo[1,5-a][1,4]diazepine-2-carboxamide] | 1 to 100 |
